Experimental data as given in PubChem BioAssay AID1963961 (Molecular Pharmacology Branch, DTP, NCI, 2024).

Tested on: K98450-129-R-PDC multicell spheroids, viability
Assay: Anticancer human tumor K98450-129-R-PDC patient-derived colon adenocarcinoma cell line growth inhibition [PI3K]
Details: for IC50: curve of first compound; for viability, T/C: stronger effect = lower value
Procedure, shortened: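 Three cell types, namely tumor cells, endothelial cells and mesenchymal stem cells, formed each spheroid. Combinations with four PI3K inhibitors were screened at clinically achievable concentrations decreasing by half-log, and spheroid viability was recorded.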

[1] = second compound 0.0316 µM, first compound 0.0316 µM
[2] = second compound 0.0316 µM, first compound 0.1 µM
[3] = second compound 0.0316 µM, first compound 0.316 µM
[4] = second compound 0.0316 µM, first compound 1 µM
[5] = second compound 0.0316 µM, first compound 3.16 µM
[6] = second compound 0.0316 µM, first compound 10 µM
[7] = second compound 0.1 µM, first compound 0.0316 µM
[8] = second compound 0.1 µM, first compound 0.1 µM
[9] = second compound 0.1 µM, first compound 0.316 µM
[10] = second compound 0.1 µM, first compound 1 µM
[11] = second compound 0.1 µM, first compound 3.16 µM
[12] = second compound 0.1 µM, first compound 10 µM
[13] = second compound 0.316 µM, first compound 0.0316 µM
[14] = second compound 0.316 µM, first compound 0.1 µM
[15] = second compound 0.316 µM, first compound 0.316 µM
[16] = second compound 0.316 µM, first compound 1 µM
[17] = second compound 0.316 µM, first compound 3.16 µM
[18] = second compound 0.316 µM, first compound 10 µM
[19] = second compound 1 µM, first compound 0.0316 µM
[20] = second compound 1 µM, first compound 0.1 µM
[21] = second compound 1 µM, first compound 0.316 µM
[22] = second compound 1 µM, first compound 1 µM
[23] = second compound 1 µM, first compound 3.16 µM
[24] = second compound 1 µM, first compound 10 µM
[25] = second compound 3.16 µM, first compound 0.0316 µM
[26] = second compound 3.16 µM, first compound 0.1 µM
[27] = second compound 3.16 µM, first compound 0.316 µM
[28] = second compound 3.16 µM, first compound 1 µM
[29] = second compound 3.16 µM, first compound 3.16 µM
[30] = second compound 3.16 µM, first compound 10 µM
[31] = second compound 10 µM, first compound 0.0316 µM
[32] = second compound 10 µM, first compound 0.1 µM
[33] = second compound 10 µM, first compound 0.316 µM
[34] = second compound 10 µM, first compound 1 µM
[35] = second compound 10 µM, first compound 3.16 µM
[36] = second compound 10 µM, first compound 10 µM
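Also: spheroids exposed to agents for seven days before read-out.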

In the case of `Cn1nccc1Nc1nccc(-c2ccn(C(CO)c3ccc(Cl)c(F)c3)c(=O)c2)n1` (stereo unspecified) + Cc1nc(NC(=O)N2CCCC2C(N)=O)sc1-c1ccnc(C(C)(C)C(F)(F)F)c1, the IC50 (second compound 0.0316 µM) is reported as > 10 µM, the IC50 (second compound 0.1 µM) is reported as > 10 µM and the IC50 (second compound 0.316 µM) is reported as > 10 µM. For the same compound, the IC50 (second compound 1 µM) was > 10 µM, the IC50 (second compound 3.16 µM) was > 10 µM and the IC50 (second compound 10 µM) was > 10 µM. For the same compound, the viability, T/C [1] was 107%, the viability, T/C [2] was 97.7% and the viability, T/C [3] was 103%. The viability, T/C [4] was 109%, the viability, T/C [5] was 97.2% and the viability, T/C [6] was 89.2%. It also gave a viability, T/C [7] of 114%, a viability, T/C [8] of 104% and a viability, T/C [9] of 100%. The viability, T/C [10] was 92.6%, the viability, T/C [11] was 96.7% and the viability, T/C [12] was 97.8%. It also gave a viability, T/C [13] of 104%, a viability, T/C [14] of 103% and a viability, T/C [15] of 94.1%. The viability, T/C [16] was 98.6%, the viability, T/C [17] was 98.5% and the viability, T/C [18] was 83.3%. It also gave a viability, T/C [19] of 91.6%, a viability, T/C [20] of 95.2% and a viability, T/C [21] of 93.5%. The viability, T/C [22] was 84.9%, the viability, T/C [23] was 98.6% and the viability, T/C [24] was 80.8%. The viability, T/C [25] was 78.9%, the viability, T/C [26] was 86.1% and the viability, T/C [27] was 87%. It also gave a viability, T/C [28] of 77.9%, a viability, T/C [29] of 85.4% and a viability, T/C [30] of 64.7%. For the same compound, the viability, T/C [31] was 71%, the viability, T/C [32] was 70.7% and the viability, T/C [33] was 72.2%. For the same compound, the viability, T/C [34] was 75%, the viability, T/C [35] was 77.8% and the viability, T/C [36] was 50.9%.

`CC1(C)CCC(Nc2ncc(C(F)(F)F)c(-c3c[nH]c4c(P(C)(C)=O)c(C#N)ccc34)n2)CN1` (stereo unspecified) + CC(Nc1ncnc2nc[nH]c12)c1cc2cccc(Cl)c2c(=O)n1-c1ccccc1 was tested, and the IC50 (second compound 0.0316 µM) was > 10 µM, the IC50 (second compound 0.1 µM) was 7.06 µM and the IC50 (second compound 0.316 µM) was > 10 µM. It also gave an IC50 (second compound 1 µM) of 4.51 µM, an IC50 (second compound 3.16 µM) of 5.35 µM and an IC50 (second compound 10 µM) of 2.33 µM. It also gave a viability, T/C [1] of 104%, a viability, T/C [2] of 85.5% and a viability, T/C [3] of 67.9%. For the same compound, the viability, T/C [4] was 67.4%, the viability, T/C [5] was 66.2% and the viability, T/C [6] was 44.5%. The viability, T/C [7] was 139%, the viability, T/C [8] was 108% and the viability, T/C [9] was 69.2%. The viability, T/C [10] was 68.7%, the viability, T/C [11] was 78.7% and the viability, T/C [12] was 45.2%. The viability, T/C [13] was 101%, the viability, T/C [14] was 98.4% and the viability, T/C [15] was 75.3%. The viability, T/C [16] was 58.6%, the viability, T/C [17] was 76.8% and the viability, T/C [18] was 45%. The viability, T/C [19] was 107%, the viability, T/C [20] was 93.6% and the viability, T/C [21] was 74.7%. For the same compound, the viability, T/C [22] was 64.6%, the viability, T/C [23] was 62.9% and the viability, T/C [24] was 36.9%. It also gave a viability, T/C [25] of 101%, a viability, T/C [26] of 82.4% and a viability, T/C [27] of 63.8%. The viability, T/C [28] was 70.9%, the viability, T/C [29] was 65.1% and the viability, T/C [30] was 36.7%. It also gave a viability, T/C [31] of 94.9%, a viability, T/C [32] of 88.5% and a viability, T/C [33] of 63.3%. For the same compound, the viability, T/C [34] was 62%, the viability, T/C [35] was 59.6% and the viability, T/C [36] was 21.6%.

With `CC(Cn1ccc(-c2ccc(C#N)c(Cl)c2)n1)NC(=O)c1cc(C(C)O)[nH]n1` (stereo unspecified) + CC(Nc1ccc2c(c1)OCCn1cc(N3C(=O)OCC3C(F)F)nc1-2)C(N)=O the IC50 (second compound 0.00316 µM) was > 10 µM, the IC50 (second compound 0.01 µM) was > 10 µM and the IC50 (second compound 0.0316 µM) was > 10 µM. For the same compound, the IC50 (second compound 0.1 µM) was > 10 µM, the IC50 (second compound 0.316 µM) was > 10 µM and the IC50 (second compound 1 µM) was > 10 µM. It also gave a viability, T/C (second compound 0.00316 µM, first compound 0.0316 µM) of 111%, a viability, T/C (second compound 0.00316 µM, first compound 0.1 µM) of 99.6% and a viability, T/C (second compound 0.00316 µM, first compound 0.316 µM) of 105%. It also gave a viability, T/C (second compound 0.00316 µM, first compound 1 µM) of 101%, a viability, T/C (second compound 0.00316 µM, first compound 3.16 µM) of 105% and a viability, T/C (second compound 0.00316 µM, first compound 10 µM) of 106%. For the same compound, the viability, T/C (second compound 0.01 µM, first compound 0.0316 µM) was 113%, the viability, T/C (second compound 0.01 µM, first compound 0.1 µM) was 98.6% and the viability, T/C (second compound 0.01 µM, first compound 0.316 µM) was 102%. For the same compound, the viability, T/C (second compound 0.01 µM, first compound 1 µM) was 98.4%, the viability, T/C (second compound 0.01 µM, first compound 3.16 µM) was 101% and the viability, T/C (second compound 0.01 µM, first compound 10 µM) was 111%. The viability, T/C [1] was 102%, the viability, T/C [2] was 109% and the viability, T/C [3] was 101%. The viability, T/C [4] was 96.2%, the viability, T/C [5] was 101% and the viability, T/C [6] was 102%. It also gave a viability, T/C [7] of 98.2%, a viability, T/C [8] of 100% and a viability, T/C [9] of 103%. The viability, T/C [10] was 95.2%, the viability, T/C [11] was 109% and the viability, T/C [12] was 95%. The viability, T/C [13] was 92.6%, the viability, T/C [14] was 98% and the viability, T/C [15] was 97.7%. The viability, T/C [16] was 94.1%, the viability, T/C [17] was 104% and the viability, T/C [18] was 91.9%. The viability, T/C [19] was 87.7%, the viability, T/C [20] was 91.6% and the viability, T/C [21] was 91.7%. It also gave a viability, T/C [22] of 86.2%, a viability, T/C [23] of 90.4% and a viability, T/C [24] of 92.3%.
